This passage reports IC50 results from article PMC6641291 (ACS Omega, 2018).

The assay has as its target T1, δ^1-pyrroline-5-carboxylate reductase (P5C reductase) (Arabidopsis thaliana, UniProt P54904).
T1 sequence (P54904 1-276): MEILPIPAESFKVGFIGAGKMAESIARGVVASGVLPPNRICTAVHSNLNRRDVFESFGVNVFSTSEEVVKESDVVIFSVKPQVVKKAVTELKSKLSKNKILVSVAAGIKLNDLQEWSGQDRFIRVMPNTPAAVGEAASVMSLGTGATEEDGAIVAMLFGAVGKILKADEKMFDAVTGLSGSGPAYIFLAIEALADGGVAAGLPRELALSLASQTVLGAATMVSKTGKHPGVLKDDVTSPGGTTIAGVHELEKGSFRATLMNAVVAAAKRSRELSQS
The assay is described as follows: P5C-dependent NADH oxidation, absorbance at […] nm. It counts as biochemical.
The term IC50 denotes the concentration that inhibits the measured activity by half. Higher therefore signals a need for much substance. `O=P(O)(O)[C@@H]1CCCN1` [(R)-1, Pyrrolidin-2-ylphosphonic Acid]: the IC50 amounted to 24 ± 4 mM.

Consider `O=P(O)(O)[C@H]1CCCN1` [(S)-1, Pyrrolidin-2-ylphosphonic Acid], for which the concentration for half-maximal inhibition (IC50) stood at 21 ± 2 mM.

`O=P(O)(O)[C@@H]1CCCON1` [(R)-6, (R)-(−)-1,2-oxazinan-3-ylphosphonic acid] yielded a 50% inhibitory concentration (IC50) of 45 ± 19 mM.

Regarding `O=C(O)[C@@H]1CCCN1` [proline], half-maximal inhibition (IC50) was put at 84 ± 3 mM.
